Experimental data taken from PMC7161708 (Acta Pharmaceutica Sinica. B, 2019).
Several values for one entry are separate records, joined by “and”; a condition that tells them apart may be missing. Equal values may be shown once. Read-outs that look alike come from different tables or passages of the source. One block for each molecule: values may come before it.

Legend:
Aβ40/42 = Aβ40/42 level in brain of APP/PS1 transgenic mice, ELISA; format: in vivo; conditions: oral, 100 days, compared with TV group
SH-SY5Y cells = experiment: Cell viability assay; format: cell-based; conditions: 24 h
LC3 II, Beclin 1 and p62 = experiment: Western blot of autophagy marker proteins in BV2 cells; format: cell-based; conditions: 24 h
[1] = test system: p70S6K and tau phosphorylation; format: in vivo; conditions: APP/PS1 transgenic mice
[2] = from PAMPA–BBB Pe
Aβ1−40 and Aβ1−42 = experiment: Aβ clearance ELISA assay in BV2 cell; format: cell-based; conditions: 5, 10 and 20 μmol/L, 24 h, then 2 μg/mL soluble Aβ for 3 h
[3] = test system: APP/PS1 transgenic AD model mice; experiment: Nesting test in APP/PS1 transgenic mice; format: in vivo; conditions: 30 mg/kg orally, 100 days, compared with TV group
[4] = test system: phosphorylation of tau protein; experiment: Tau phosphorylation Western blot in SH-SY5Y cell; format: cell-based; conditions: 5, 10 and 20 μmol/L, 24 h
[5] = test system: phosphorylation of AKT, mTOR, p70S6K and ULK1; experiment: Western blot of AKT/mTOR/ULK1 signaling pathway in BV2 cells; format: cell-based; conditions: 20, 10, 5 μmol/L, 24 h
in vitro = conditions: PAMPA
autophagy in BV2 cells = experiment: Autophagic flux assay; format: cell-based; conditions: 20 μmol/L, 24 h, compared with the control group
[6] = test system: APP/PS1 transgenic AD model mice; experiment: Morris Water Maze assay in APP/PS1 transgenic mice; format: in vivo; conditions: 100 days, compared with TV group
[7] = test system: phosphorylation of p70S6K; experiment: Inhibition of p70S6K phosphorylation, α-screen assay in SH-SY5Y cell; format: cell-based; conditions: mean ± SD (n ≥ 3)
hERG potassium channels = hERG potassium channels (Homo sapiens, UniProt Q12809); experiment: hERG inhibition patch clamp assay
Chain of hERG potassium channels (Q12809 whole entry): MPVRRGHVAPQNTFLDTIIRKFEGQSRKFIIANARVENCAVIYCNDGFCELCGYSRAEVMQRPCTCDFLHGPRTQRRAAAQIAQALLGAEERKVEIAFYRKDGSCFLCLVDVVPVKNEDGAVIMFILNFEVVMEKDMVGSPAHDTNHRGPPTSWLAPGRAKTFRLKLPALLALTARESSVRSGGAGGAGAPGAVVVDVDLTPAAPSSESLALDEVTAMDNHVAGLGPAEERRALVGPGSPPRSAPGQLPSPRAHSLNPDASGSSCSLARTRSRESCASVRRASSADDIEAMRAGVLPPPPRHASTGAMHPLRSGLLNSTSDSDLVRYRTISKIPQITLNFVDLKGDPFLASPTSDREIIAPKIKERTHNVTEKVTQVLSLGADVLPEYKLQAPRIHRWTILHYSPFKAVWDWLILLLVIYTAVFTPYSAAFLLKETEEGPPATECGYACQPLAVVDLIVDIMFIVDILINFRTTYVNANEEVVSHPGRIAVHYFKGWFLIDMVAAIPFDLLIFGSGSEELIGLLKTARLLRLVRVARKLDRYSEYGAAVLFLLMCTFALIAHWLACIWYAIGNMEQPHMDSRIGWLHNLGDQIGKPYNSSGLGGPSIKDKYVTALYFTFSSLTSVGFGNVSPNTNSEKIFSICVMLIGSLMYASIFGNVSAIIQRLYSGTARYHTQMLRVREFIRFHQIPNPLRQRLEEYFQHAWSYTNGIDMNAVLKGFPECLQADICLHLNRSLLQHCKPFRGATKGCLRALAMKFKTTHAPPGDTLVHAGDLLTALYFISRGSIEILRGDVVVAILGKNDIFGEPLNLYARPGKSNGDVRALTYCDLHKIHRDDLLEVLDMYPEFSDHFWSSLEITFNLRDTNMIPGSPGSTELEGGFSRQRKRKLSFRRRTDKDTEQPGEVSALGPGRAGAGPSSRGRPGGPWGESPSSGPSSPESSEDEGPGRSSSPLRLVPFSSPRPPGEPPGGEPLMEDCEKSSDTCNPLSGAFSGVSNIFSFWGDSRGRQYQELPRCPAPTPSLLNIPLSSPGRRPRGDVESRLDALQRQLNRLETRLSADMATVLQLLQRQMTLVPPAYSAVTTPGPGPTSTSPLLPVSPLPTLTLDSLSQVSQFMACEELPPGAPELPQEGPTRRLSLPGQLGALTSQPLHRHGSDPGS

BV2 cells = experiment: Cell viability assay, BV2 cells; format: cell-based; conditions: 24 h; for Cytotoxicity on BV2 cells: 2, 5, 10, 20, 40 μmol/L; for Cell viability of BV2 cells at high concentration: 80, 160 μmol/L

- Papp at 10 h, 100 μg/mL (in vitro): 106.2 ± 1 nm/s
Compound: O=C(Nc1ncc(N2CCOCC2)s1)c1ccc(Cl)s1 [Compound 36, 5-Chloro-N-(5-morpholinothiazol-2-yl)thiophene-2-carboxamide]
- Cytotoxicity on SH-SY5Y cells (SH-SY5Y cells): low cytotoxicity
- Protein levels of Beclin 1, LC3 II and p62 (Western blot) (LC3 II, Beclin 1 and p62): upregulate the protein levels of Beclin 1 and LC3 II, and decrease the p62 protein level
- Prediction of BBB penetration [2]: CNS+ (Compounds with permeabilities Pe > 3.08 × 10^−6 cm/s could cross the BBB by passive diffusion (CNS+))
- Phosphorylation of AKT, mTOR, p70S6K (Western blot) [5]: effectively inhibit the phosphorylation of AKT, mTOR, and p70S6K
- ULK1 phosphorylation at Ser 757 (Western blot) [5]: no effect on the ULK1 phosphorylation
- Numbers of yellow and red mTagRFP-mWasabi-LC3 puncta (autophagy in BV2 cells): increased the numbers of both yellow and red puncta
- Inhibition ratio of p70S6K phosphorylation at 20 μmol/L (%) [7]: 83.32±0.41%
- Cytotoxicity on BV2 cells (BV2 cells): no cytotoxicity
- Cell viability of BV2 cells at high concentration (BV2 cells): decreased

- Papp at 10 h, 100 μg/mL (in vitro): 4.5 ± 0.3 nm/s
Compound: O=C(Nc1ncc(N2CCOCC2)s1)c1cccc(O)c1 [Compound 20, 3-Hydroxy-N-(5-morpholinothiazol-2-yl)benzamide]
- Prediction of BBB penetration [2]: CNS− (Compounds with Pe < 1.13 × 10^−6 cm/s show low BBB permeation (CNS−))
- Inhibition ratio of p70S6K phosphorylation at 20 μmol/L (%) [7]: 83.86±1.54%

- Papp at 10 h, 100 μg/mL (in vitro): 104 ± 12.5 nm/s
Compound: O=C(Nc1ncc(N2CCOCC2)s1)c1cccs1 [Compound 33, N-(5-Morpholinothiazol-2-yl)thiophene-2-carboxamide]
- Prediction of BBB penetration [2]: CNS+ (Compounds with permeabilities Pe > 3.08 × 10^−6 cm/s could cross the BBB by passive diffusion (CNS+))
- Inhibition ratio of p70S6K phosphorylation at 20 μmol/L (%) [7]: 79.80±5.03%

- Papp at 10 h, 100 μg/mL (in vitro): 98.9 ± 3.7 nm/s
Compound: Cc1ccc(C(=O)Nc2ncc(N3CCOCC3)s2)s1 [Compound 37, 5-Methyl-N-(5-morpholinothiazol-2-yl)thiophene-2-carboxamide]
- Prediction of BBB penetration [2]: CNS+ (Compounds with permeabilities Pe > 3.08 × 10^−6 cm/s could cross the BBB by passive diffusion (CNS+))
- Inhibition ratio of p70S6K phosphorylation at 20 μmol/L (%) [7]: 81.20±1.60%

- Papp at 10 h, 100 μg/mL (in vitro): 49.2 ± 3.1 nm/s
Compound: CC(=O)Oc1ccc(C(=O)Nc2ncc(N3CCOCC3)s2)cc1 [Compound 23, 4-Acetyloxy-N-(5-morpholinothiazol-2-yl)benzamide]
- Prediction of BBB penetration [2]: CNS+ (Compounds with permeabilities Pe > 3.08 × 10^−6 cm/s could cross the BBB by passive diffusion (CNS+))
- Inhibition ratio of p70S6K phosphorylation at 20 μmol/L (%) [7]: 84.96±0.98%

The next lines start with the molecule.

Compound: CC(=O)Oc1cccc(C(=O)Nc2ncc(N3CCOCC3)s2)c1 [Compound 22, 3-Acetyloxy-N-(5-morpholinothiazol-2-yl)benzamide]
- Aβ40/42 level in cerebral cortex and hippocampus (ELISA) (Aβ40/42): significantly reduced Aβ40/42 level
- Cytotoxicity on SH-SY5Y cells (SH-SY5Y cells): low cytotoxicity
- Protein levels of Beclin 1, LC3 II and p62 (Western blot) (LC3 II, Beclin 1 and p62): upregulate the protein levels of Beclin 1 and LC3 II, and decrease the p62 protein level
- p70S6K phosphorylation level in the cortex (Western blot) ([1]; 10 mg/kg): significantly reduce the p70S6K phosphorylation level
- p70S6K phosphorylation level in the cortex (Western blot) ([1]; 30 mg/kg): significantly reduce the p70S6K phosphorylation level
- Prediction of BBB penetration [2]: CNS+ (Compounds with permeabilities Pe > 3.08 × 10^−6 cm/s could cross the BBB by passive diffusion (CNS+))
- Aβ1−40 and Aβ1−42 content in the cell (ELISA) (Aβ1−40 and Aβ1−42): dose-dependently decreased both Aβ1−40 and Aβ1−42 content
- Nesting test [3]: obvious improvement in nesting test
- Tau phosphorylation at Ser199, 396 and Tyr231 (Western blot) [4]: dose-dependently inhibited tau phosphorylation
- Phosphorylation of AKT, mTOR, p70S6K (Western blot) [5]: dose-dependently suppressed the phosphorylation of AKT, mTOR, p70S6K
- ULK1 phosphorylation at Ser 757 (Western blot) [5]: decreased ULK1 phosphorylation at Ser 757
- Papp at 10 h, 100 μg/mL (in vitro): 60.2 ± 2.7 nm/s
- Numbers of yellow and red mTagRFP-mWasabi-LC3 puncta (autophagy in BV2 cells): increased the numbers of both yellow and red puncta
- Escape latencies in MWM assay ([6]; 10 mg/kg orally): significantly reduced the escape latencies
- Crossing times in MWM probe trial ([6]; 30 mg/kg orally): significantly increased the crossing times
- Escape latencies in MWM assay ([6]; 30 mg/kg orally): significantly reduced the escape latencies
- Inhibition ratio of p70S6K phosphorylation at 20 μmol/L (%) [7]: 88.95% and 88.95±0.78%
- IC50 (hERG potassium channels): > 40 µM
- Cytotoxicity on BV2 cells (BV2 cells): no cytotoxicity
- Cell viability of BV2 cells at high concentration (BV2 cells): decreased

Compound: CC(=O)Oc1ccccc1C(=O)Nc1ncc([N+](=O)[O-])s1 [NTZ, nitazoxanide, reference compound]
- Nesting test [3]: obvious improvement in nesting test
- Papp at 10 h, 100 μg/mL (in vitro): 12.6 ± 2.1 nm/s
- Escape latencies in MWM assay ([6]; 30 mg/kg orally): significantly shortened the escape latencies

Compound: CC(=O)Oc1ccccc1C(=O)Nc1ncc(N2CCOCC2)s1 [Compound 12, 2-Acetyloxy-N-(5-morpholinothiazol-2-yl)benzamide]
- Concentration at which viability of SH-SY5Y cells decreased (SH-SY5Y cells): 5 µM
- Prediction of BBB penetration [2]: CNS+ (Compounds with permeabilities Pe > 3.08 × 10^−6 cm/s could cross the BBB by passive diffusion (CNS+))
- Papp at 10 h, 100 μg/mL (in vitro): 57.6 ± 5.7 nm/s
- Inhibition ratio of p70S6K phosphorylation at 20 μmol/L (%) [7]: 85.20% and 85.20±1.76%
- Concentration at which viability of BV2 cells began to decrease (BV2 cells): 20 µM

Compound: O=C(Nc1ncc(N2CCOCC2)s1)c1cccc2ccccc12 [Compound 30, N-(5-Morpholinothiazol-2-yl)-1-naphthamide]
- Prediction of BBB penetration [2]: CNS+ (Compounds with permeabilities Pe > 3.08 × 10^−6 cm/s could cross the BBB by passive diffusion (CNS+))
- Papp at 10 h, 100 μg/mL (in vitro): 57.6 ± 5.5 nm/s
- Inhibition ratio of p70S6K phosphorylation at 20 μmol/L (%) [7]: 78.75±2.50%
